The results in this text go back to patent US8722849B2, “Polypeptides” (Novo Nordisk A/S, priority 2011, dated 2014).

≈ marks a conversion by molar mass, not a printed value. Read-outs that look alike come from different tables or passages of the source. Starred links: 1 amine or outer side, 2 acyl side, 3 side chain; linkers in the order of their positions; H or OH if unused. Positions of bridges follow the written chain, without caps; N, C: chain ends. Residues, ends and D or L forms follow the SMILES beside them. *: point of attachment. C20 diacid = O=C(O)CCCCCCCCCCCCCCCCCCC(=O)*; C18 diacid = O=C(O)CCCCCCCCCCCCCCCCC(=O)*; γGlu = O=C(O)[C@H](CCC(=O)[*:2])N[*:1]

Data set [1] deals with T1, human calcitonin receptor (Homo sapiens, UniProt P30988).
T1 construct: expressed in transfected cells; host or cells: BHK570
T1 sequence (P30988 25-474): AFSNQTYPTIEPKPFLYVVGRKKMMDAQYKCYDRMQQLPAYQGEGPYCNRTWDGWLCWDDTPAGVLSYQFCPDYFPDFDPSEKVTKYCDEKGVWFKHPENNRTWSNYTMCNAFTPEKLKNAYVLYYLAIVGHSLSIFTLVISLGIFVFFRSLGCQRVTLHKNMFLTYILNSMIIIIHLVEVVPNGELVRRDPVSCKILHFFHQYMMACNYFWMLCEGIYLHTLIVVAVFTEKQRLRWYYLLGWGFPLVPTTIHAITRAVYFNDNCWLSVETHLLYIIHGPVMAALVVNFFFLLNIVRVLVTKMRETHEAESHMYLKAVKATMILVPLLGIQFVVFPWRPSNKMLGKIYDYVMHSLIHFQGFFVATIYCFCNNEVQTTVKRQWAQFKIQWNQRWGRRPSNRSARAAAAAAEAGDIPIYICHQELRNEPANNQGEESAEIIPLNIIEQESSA
Put plainly: Assay (II)a functional CRE-luciferase assay, human calcitonin receptor. In kind it is cell-based. The note with it: Table 7; human calcitonin (CTa) receptor.

Data set [2] in a line: Assay (IV) determination of solubility. It counts as physicochemical. The essentials: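 Eight 100 mM buffers (glycylglycine pH 3.0–5.0, bistrispropane pH 6.0–8.0) each received an equal volume of polypeptide dissolved in water at ~500 nmol/ml. Soluble polypeptide was measured by HPLC following 18 hours at room temperature and centrifugation.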
Data set [3] is described as follows: Assay (III) ThT fibrillation assay for physical stability. It counts as physicochemical. A digest of the protocol: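 Freshly prepared formulations, pH-adjusted, with 1 μM ThT; four or eight replicates incubated at 37 °C under 960 rpm orbital shaking. Fluorescence (ex 444/em 485 nm) read every 20 min; […]. Peptide concentration measured by RP-HPLC before and after the run.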

Data set [4] has as its target T2, human amylin receptor (amylin 3(a) receptor: human calcitonin receptor + RAMP-3) (Homo sapiens, UniProt O60896+P30988).
T2 construct: expressed in transfected cells; host or cells: BHK570
T2 sequence (P30988 25-474): T1 sequence (P30988 25-474)
T2 sequence (O60896 24-148 partner): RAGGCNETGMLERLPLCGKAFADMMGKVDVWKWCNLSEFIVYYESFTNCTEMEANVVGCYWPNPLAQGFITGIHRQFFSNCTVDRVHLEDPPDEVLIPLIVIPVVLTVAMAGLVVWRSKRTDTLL
The data set can be described thus: Assay (II)a functional CRE-luciferase assay, human amylin receptor. Conditions: Table 2; BHK amylin 3(a)-receptor/CRE-luc cells. In kind it is cell-based.

Setting [5] is: bistrispropane buffer, pH 6, pH 6.0, read-out: Solubility pH 6.0.
Setting [6] is: bistrispropane buffer, pH 6.5, pH 6.5, read-out: Solubility pH 6.5.
The mark [7] stands for this setting: bistrispropane buffer, pH 7, pH 7.0, 18 hours at room temperature, Table 3, read-out: Solubility pH 7.0.
[8] abbreviates: bistrispropane buffer, pH 7, pH 7.0, Table 8, read-out: Solubility pH 7.0.
Setting [9] is: bistrispropane buffer, pH 7, pH 7.0, read-out: Solubility pH 7.0.
Where [10] appears, read: bistrispropane buffer, pH 7.5, pH 7.5, read-out: Solubility pH 7.5.
Setting [11] is: bistrispropane buffer, pH 8, pH 8.0, read-out: Solubility pH 8.0.
Setting [12] is: glycylglycine buffer, pH 3, pH 3.0, read-out: Solubility pH 3.0.
[13] abbreviates: glycylglycine buffer, pH 4, pH 4.0, 18 hours at room temperature, Table 2, read-out: Solubility pH 4.0.
The mark [14] stands for this setting: glycylglycine buffer, pH 4, pH 4.0, read-out: Solubility pH 4.0.
The mark [15] stands for this setting: glycylglycine buffer, pH 5, pH 5.0, read-out: Solubility pH 5.0.

`CC[C@H](C)[C@H](NC(=O)[C@@H]1CCCN1C(=O)CNC(=O)[C@H](Cc1ccccc1)NC(=O)[C@H](CC(N)=O)NC(=O)[C@H](CCC(N)=O)NC(=O)[C@H](CO)NC(=O)[C@H](CO)NC(=O)[C@H](Cc1c[nH]cn1)NC(=O)[C@H](Cc1c[nH]cn1)NC(=O)[C@H](CC(C)C)NC(=O)[C@H](Cc1ccccc1)NC(=O)[C@H](CCC(=O)O)NC(=O)[C@H](C)NC(=O)[C@H](CC(C)C)NC(=O)[C@H](CCCNC(=N)N)NC(=O)[C@H](CCC(N)=O)NC(=O)[C@@H](NC(=O)[C@H](C)NC(=O)[C@@H]1CSSC[C@H](NC(=O)[C@H](CCCCN)NC(=O)CC[C@H](NC(=O)CCCCCCCCCCCCCCCCCCC(=O)O)C(=O)O)C(=O)N[C@@H](CC(N)=O)C(=O)N[C@@H]([C@@H](C)O)C(=O)N[C@@H](C)C(=O)N[C@@H]([C@@H](C)O)C(=O)N1)[C@@H](C)O)C(=O)N[C@@H](CC(C)C)C(=O)N1CCC[C@H]1C(=O)N1CCC[C@H]1C(=O)N[C@H](C(=O)N[C@@H](CC(N)=O)C(=O)N[C@H](C(=O)NCC(=O)N[C@@H](CO)C(=O)N[C@@H](CC(N)=O)C(=O)N[C@H](C(=O)N1CCC[C@H]1C(N)=O)[C@@H](C)O)C(C)C)[C@@H](C)O` [Example 130, N-alpha-[(S)-4-Carboxy-4-(19-carboxynonadecanoylamino)butyryl]-[Glu14,His17,Gln21,Pro37]-pramlintide] ({C20 diacid-γGlu}-KCNTATCATQRLAEFLHHSSQNFGPILPPTNVGSNTP-NH2; disulfide 2-7 (inferred)): the EC50 is 0.0315 nM in data set [1] and 0.0555 nM in data set [4]. The solubility at 18 h in data set [2] (setting [5]) was > 200 µM; in data set [2] (setting [6]), > 200 µM; in data set [2] (setting [7]), > 200 µM; in data set [2] (setting [8]), > 200 µM; in data set [2] (bistrispropane buffer, pH 7, pH 7.0, Table 9, read-out: Solubility pH 7.0), > 200 µM; in data set [2] (setting [9]), > 200 µM. The solubility at 18 h in data set [2] (bistrispropane buffer, pH 7.5, pH 7.5, Table 9, read-out: Solubility pH 7.5) was > 200 µM; in data set [2] (setting [10]), > 200 µM; in data set [2] (setting [11]), > 200 µM; in data set [2] (setting [12]) it was > 200 µM; in data set [2] (setting [13]), > 200 µM; in data set [2] (setting [14]) it was > 200 µM. Further, in data set [2] (setting [15]), the solubility at 18 h is > 200 µM. Moreover, the “ThT pH 4.0 lag time” value in data set [3] (Table 8), in data set [3] (Table 9) and in data set [3] (ThT fibrillation assay) was >45 h in each case. In addition, the “ThT pH 4.0 lag time (h)” value in data set [3] (ThT fibrillation assay) is >45 h.
As for `CC[C@H](C)[C@H](NC(=O)[C@@H]1CCCN1C(=O)CNC(=O)[C@H](Cc1ccccc1)NC(=O)[C@H](CC(N)=O)NC(=O)[C@H](CC(N)=O)NC(=O)[C@H](CO)NC(=O)[C@H](CO)NC(=O)[C@H](Cc1c[nH]cn1)NC(=O)[C@H](CCCNC(=N)N)NC(=O)[C@H](CC(C)C)NC(=O)[C@H](Cc1ccccc1)NC(=O)[C@H](CCC(=O)O)NC(=O)[C@H](C)NC(=O)[C@H](CC(C)C)NC(=O)[C@H](CCCNC(=N)N)NC(=O)[C@H](CCC(N)=O)NC(=O)[C@@H](NC(=O)[C@H](C)NC(=O)[C@@H]1CSSC[C@H](NC(=O)[C@H](CCCCN)NC(=O)CC[C@H](NC(=O)CCCCCCCCCCCCCCCCC(=O)O)C(=O)O)C(=O)N[C@@H](CC(N)=O)C(=O)N[C@@H]([C@@H](C)O)C(=O)N[C@@H](C)C(=O)N[C@@H]([C@@H](C)O)C(=O)N1)[C@@H](C)O)C(=O)N[C@@H](CC(C)C)C(=O)N1CCC[C@H]1C(=O)N1CCC[C@H]1C(=O)N[C@H](C(=O)N[C@@H](CC(N)=O)C(=O)N[C@H](C(=O)NCC(=O)N[C@@H](CO)C(=O)N[C@@H](CC(N)=O)C(=O)N[C@H](C(=O)N[C@@H](Cc1ccc(O)cc1)C(N)=O)[C@@H](C)O)C(C)C)[C@@H](C)O` [Example 51, N-alpha-[(S)-4-Carboxy-4-(17-carboxyheptadecanoylamino)butyryl]-[Glu14,Arg17]-pramlintide] ({C18 diacid-γGlu}-KCNTATCATQRLAEFLRHSSNNFGPILPPTNVGSNTY-NH2; disulfide 2-7 (inferred); C-terminus assumed), the EC50 turned out to be 0.6 nM in data set [1] and 0.061 nM in data set [4]. The solubility at 18 h in data set [2] (setting [5]), in data set [2] (setting [6]), in data set [2] (setting [7]), in data set [2] (setting [8]), in data set [2] (setting [9]) and in data set [2] (setting [10]) was > 200 µM in each case. Moreover, the solubility at 18 h in data set [2] (setting [11]), in data set [2] (setting [12]), in data set [2] (setting [13]), in data set [2] (setting [14]) and in data set [2] (setting [15]) was > 200 µM in each case. For the same compound, the “ThT pH 4.0 lag time” value in data set [3] (Table 8) and in data set [3] (ThT fibrillation assay) was 28.7 h throughout. The “ThT pH 4.0 lag time (h)” value in data set [3] (ThT fibrillation assay) was found to be 28.7 h.
`CC[C@H](C)[C@H](NC(=O)[C@@H]1CCCN1C(=O)CNC(=O)[C@H](Cc1ccccc1)NC(=O)[C@H](CC(N)=O)NC(=O)[C@H](CO)NC(=O)[C@H](CO)NC(=O)[C@H](CO)NC(=O)[C@H](Cc1c[nH]cn1)NC(=O)[C@H](Cc1c[nH]cn1)NC(=O)[C@H](CC(C)C)NC(=O)[C@H](Cc1ccccc1)NC(=O)[C@H](CCC(=O)O)NC(=O)[C@H](C)NC(=O)[C@H](CC(C)C)NC(=O)[C@H](CCCNC(=N)N)NC(=O)[C@H](CCC(N)=O)NC(=O)[C@@H](NC(=O)[C@H](C)NC(=O)[C@@H]1CSSC[C@H](NC(=O)[C@H](Cc2c[nH]cn2)NC(=O)[C@H](Cc2c[nH]cn2)NC(=O)[C@H](Cc2c[nH]cn2)NC(=O)CC[C@H](NC(=O)CCCCCCCCCCCCCCCCCCC(=O)O)C(=O)O)C(=O)N[C@@H](CC(N)=O)C(=O)N[C@@H]([C@@H](C)O)C(=O)N[C@@H](C)C(=O)N[C@@H]([C@@H](C)O)C(=O)N1)[C@@H](C)O)C(=O)N[C@@H](CC(C)C)C(=O)N1CCC[C@H]1C(=O)N1CCC[C@H]1C(=O)N[C@H](C(=O)N[C@@H](CC(N)=O)C(=O)N[C@H](C(=O)NCC(=O)N[C@@H](CO)C(=O)N[C@@H](CCC(=O)O)C(=O)N[C@H](C(=O)N[C@@H](Cc1ccc(O)cc1)C(N)=O)[C@@H](C)O)C(C)C)[C@@H](C)O` [Example 63, N-alpha-[(S)-4-Carboxy-4-(19-carboxynonadecanoylamino)butyryl]-His-His-[His1,Glu14,His17,Ser21,Glu35]-pramlintide] ({C20 diacid-γGlu}-HHHCNTATCATQRLAEFLHHSSSNFGPILPPTNVGSETY-NH2; disulfide 4-9 (inferred); C-terminus assumed): the concentration for a half-maximal effect (EC50) in data set [1] worked out at 0.632 nM; in data set [4], 0.558 nM. Further, the solubility at 18 h is 1 µM (≈ 4.73 µg/mL) in data set [2] (setting [5]); 2 µM (≈ 9.45 µg/mL) in data set [2] (setting [6]); 75 µM (≈ 355 µg/mL) in data set [2] (setting [9]); > 200 µM in data set [2] (setting [10]); > 200 µM in data set [2] (setting [11]); > 200 µM in data set [2] (setting [12]). Besides, the solubility at 18 h in data set [2] (setting [13]), in data set [2] (setting [14]) and in data set [2] (setting [15]) was > 200 µM each time. Besides, in data set [3] (ThT fibrillation assay), the “ThT pH 4.0 lag time (h)” value stood at 2 h.

The EC50 is the midpoint of the concentration-response curve. For orientation: solubility means how much of the substance goes into solution per volume.
